In PubChem BioAssay (NCI):
In brackets after ≈: the same amount, converted by molar mass. Several values for one entry are separate records, joined by “and”; a condition that tells them apart may be missing. Equal values may be shown once.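 Step 1: Grow cells in 96-well plates. Step 2: Expose to compound for 48 hours at 5 concentrations. Step 3: Interpolate endpoints linearly; if unreached, use highest concentration. Abbreviation: GI50, concentration required for 50% inhibition of growth. TGI: total growth inhibition.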

Legend:
Experiment in all cases: NCI anticancer screen, dose series, 48 h
OVCAR-4 ovarian = test system: OVCAR-4 ovarian
SK-MEL-28 melanoma = test system: SK-MEL-28 melanoma
SN12C renal = test system: SN12C renal
SK-OV-3 ovarian = test system: SK-OV-3 ovarian
NCI-H23 lung = test system: NCI-H23 lung
SW-620 colon = test system: SW-620 colon
HT29 colon = test system: HT29 colon
HCC-2998 colon = test system: HCC-2998 colon
HOP-62 NSCLC = test system: HOP-62 NSCLC
SK-MEL-2 melanoma = test system: SK-MEL-2 melanoma

## S=C(Cc1ccc2c(c1)Sc1ccccc1O2)N1CCOCC1
OVCAR-4 ovarian
  TGI: > 100 µM
SK-MEL-28 melanoma
  TGI: > 100 µM
SN12C renal
  TGI: > 100 µM
SK-OV-3 ovarian
  TGI: > 100 µM
NCI-H23 lung
  TGI: > 100 µM
SW-620 colon
  TGI: > 100 µM
HT29 colon
  TGI: > 100 µM
HCC-2998 colon
  TGI: > 100 µM
HOP-62 NSCLC
  TGI: > 100 µM
SK-MEL-2 melanoma
  TGI: > 100 µM

## O=C(CCc1cc(O)cc(O)c1)NCCc1cc(OCc2ccccc2)cc(OCc2ccccc2)c1
SK-MEL-28 melanoma
  TGI: 55 µM
SN12C renal
  TGI: 35.9 µM
SK-OV-3 ovarian
  TGI: 31.6 µM
NCI-H23 lung
  TGI: 24.6 µM
SW-620 colon
  TGI: 53.3 µM
HT29 colon
  TGI: 41.9 µM
HCC-2998 colon
  TGI: 35 µM
HOP-62 NSCLC
  TGI: 36.8 µM
SK-MEL-2 melanoma
  TGI: 28.2 µM

## C[C@@H]1CC[C@@]2(C)C(C(=O)O)=CCCC2[C@@]1(C)CC(=O)c1ccoc1 (stereo partly drawn)
OVCAR-4 ovarian
  TGI: > 25 µM
SK-MEL-28 melanoma
  TGI: > 25 µM
SN12C renal
  TGI: > 25 µM
SK-OV-3 ovarian
  TGI: > 25 µM
NCI-H23 lung
  TGI: > 25 µM
SW-620 colon
  TGI: > 25 µM
HT29 colon
  TGI: > 25 µM
SK-MEL-2 melanoma
  TGI: > 25 µM

## COC(=O)C(Cc1cn(C(C)n2cc(CC(NC(C)=O)C(=O)OC)c3ccccc32)c2ccccc12)NC(C)=O (stereo not drawn)
OVCAR-4 ovarian
  TGI: > 100 µM
SK-MEL-28 melanoma
  TGI: > 100 µM
SN12C renal
  TGI: > 100 µM
SK-OV-3 ovarian
  TGI: > 100 µM
NCI-H23 lung
  TGI: > 100 µM
SW-620 colon
  TGI: > 100 µM
HT29 colon
  TGI: > 100 µM
HCC-2998 colon
  TGI: > 100 µM
HOP-62 NSCLC
  TGI: > 100 µM
SK-MEL-2 melanoma
  TGI: > 100 µM

## OCc1ccc2c(c1)CC1(C2)Cc2cc3c(cc2C1O)CCC3 (stereo not drawn)
OVCAR-4 ovarian
  TGI: 36.3 µM
SK-MEL-28 melanoma
  TGI: 21.3 µM
SN12C renal
  TGI: 23.8 µM
SK-OV-3 ovarian
  TGI: 46.6 µM
NCI-H23 lung
  TGI: 25.7 µM
SW-620 colon
  TGI: 24 µM
HT29 colon
  TGI: 17.5 µM
HCC-2998 colon
  TGI: > 45.3 µM
HOP-62 NSCLC
  TGI: 17.7 µM
SK-MEL-2 melanoma
  TGI: 12.7 µM

## O=C(O)c1nc2ccc(C(F)(F)F)cc2[nH]c1=O
OVCAR-4 ovarian
  TGI: > 100 µM
SK-MEL-28 melanoma
  TGI: > 100 µM
SN12C renal
  TGI: > 100 µM
SK-OV-3 ovarian
  TGI: > 100 µM
NCI-H23 lung
  TGI: > 100 µM
SW-620 colon
  TGI: > 100 µM
HT29 colon
  TGI: > 100 µM
HCC-2998 colon
  TGI: > 100 µM
HOP-62 NSCLC
  TGI: > 100 µM
SK-MEL-2 melanoma
  TGI: > 100 µM

## CCOC(=O)/C=C/c1nc(C#N)c(N)o1
SK-MEL-28 melanoma
  TGI: > 100 µM
SN12C renal
  TGI: > 100 µM
SK-OV-3 ovarian
  TGI: > 100 µM
SW-620 colon
  TGI: > 100 µM
HT29 colon
  TGI: > 100 µM
HOP-62 NSCLC
  TGI: > 100 µM
SK-MEL-2 melanoma
  TGI: > 100 µM

## O=C1NN(C2=NNC3(C(=O)N2)c2ccccc2-c2ccccc23)C(c2ccccc2)=N/C1=C/c1ccc(Cl)cc1
OVCAR-4 ovarian
  GI50: 62.8 µg/mL
  TGI: > 150 µg/mL
SK-MEL-28 melanoma
  GI50: 63 µg/mL
  TGI: > 150 µg/mL
SN12C renal
  GI50: 53.5 µg/mL
  TGI: > 150 µg/mL
SK-OV-3 ovarian
  GI50: 54 µg/mL
  TGI: > 150 µg/mL
NCI-H23 lung
  GI50: 34.9 µg/mL
  TGI: > 150 µg/mL
SW-620 colon
  GI50: 52.8 µg/mL (≈ 96.9 µM)
  TGI: > 150 µg/mL
HT29 colon
  GI50: 89.6 µg/mL
  TGI: > 150 µg/mL
HOP-62 NSCLC
  GI50: 49.1 µg/mL
  TGI: > 150 µg/mL

## O=C(COc1ccc(OCC(=O)N/N=C/c2ccc(-c3ccc(Cl)cc3Cl)o2)c(Cl)c1)N/N=C/c1ccc(-c2ccc(Cl)cc2Cl)o1
OVCAR-4 ovarian
  TGI: > 100 µM
SK-MEL-28 melanoma
  TGI: > 100 µM
SN12C renal
  TGI: > 100 µM
NCI-H23 lung
  TGI: > 100 µM
SW-620 colon
  TGI: > 100 µM
HT29 colon
  TGI: > 100 µM
HCC-2998 colon
  TGI: > 100 µM
HOP-62 NSCLC
  TGI: > 100 µM
SK-MEL-2 melanoma
  TGI: > 100 µM

## CSCC[C@@H](NC(=O)[C@H](CC(C)C)NC(=O)C(Cc1cnc[nH]1)NC(=O)CNC(=O)[C@@H](NC(=O)[C@H](C)NC(=O)[C@H](Cc1c[nH]c2ccccc12)NC(=O)[C@H](CCC(N)=O)NC(=O)[C@@H](N)CC(N)=O)C(C)C)C(N)=O (stereo partly drawn)
OVCAR-4 ovarian
  TGI: > 100 µM
SK-MEL-28 melanoma
  TGI: > 100 µM
SN12C renal
  TGI: > 100 µM
SK-OV-3 ovarian
  TGI: > 100 µM
NCI-H23 lung
  TGI: > 100 µM
SW-620 colon
  TGI: > 100 µM
HT29 colon
  TGI: > 100 µM
HCC-2998 colon
  TGI: > 100 µM
HOP-62 NSCLC
  TGI: > 100 µM
SK-MEL-2 melanoma
  TGI: > 100 µM

## Cc1ccc2c(c1C)C(=O)C1(Cc3cc4c(cc3C1=O)CCC4)C2 (stereo not drawn)
OVCAR-4 ovarian
  TGI: > 100 µM
SK-MEL-28 melanoma
  TGI: > 100 µM
SN12C renal
  TGI: > 100 µM
SK-OV-3 ovarian
  TGI: > 100 µM
NCI-H23 lung
  TGI: > 100 µM
SW-620 colon
  TGI: > 100 µM
HT29 colon
  TGI: > 100 µM
HCC-2998 colon
  TGI: > 100 µM
SK-MEL-2 melanoma
  TGI: > 100 µM

## CCOC(=O)c1c(N2CCCC2)[nH]c(=O)c(C(c2ccc(OC)cc2)c2c(O)c(C(=O)OCC)c(N3CCCC3)[nH]c2=O)c1O
OVCAR-4 ovarian
  TGI: > 100 µM
SK-MEL-28 melanoma
  TGI: > 100 µM
SN12C renal
  TGI: > 100 µM
SK-OV-3 ovarian
  TGI: > 100 µM
NCI-H23 lung
  TGI: > 100 µM
SW-620 colon
  TGI: > 100 µM
HCC-2998 colon
  TGI: > 100 µM
HOP-62 NSCLC
  TGI: > 100 µM
SK-MEL-2 melanoma
  TGI: 53.9 µM

## O=c1[nH]c(NCc2ccncc2)nc2nc[nH]c12
OVCAR-4 ovarian
  TGI: > 100 µM
SN12C renal
  TGI: > 100 µM
SK-OV-3 ovarian
  TGI: > 100 µM
NCI-H23 lung
  TGI: > 100 µM
SW-620 colon
  TGI: > 100 µM
HT29 colon
  TGI: > 100 µM
HCC-2998 colon
  TGI: > 100 µM
HOP-62 NSCLC
  TGI: > 100 µM
SK-MEL-2 melanoma
  TGI: > 100 µM

## COC(=O)/C=C(\C)CC/C=C(\C)CCC1OC1(C)C (stereo not drawn)
OVCAR-4 ovarian
  TGI: 22.2 µM
SK-MEL-28 melanoma
  TGI: 23.3 µM
SN12C renal
  TGI: 20.8 µM
SK-OV-3 ovarian
  TGI: > 75 µM
NCI-H23 lung
  TGI: 24.2 µM
SW-620 colon
  TGI: 28.4 µM
HT29 colon
  TGI: 27.6 µM
HCC-2998 colon
  TGI: 22.8 µM
HOP-62 NSCLC
  TGI: 26.7 µM
SK-MEL-2 melanoma
  TGI: 21.2 µM

## CC1(C)CC(=O)C2=C(C1)C(c1ccccc1Cl)C1C(=O)CC(C)(C)CC1(O)O2 (stereo not drawn)
OVCAR-4 ovarian
  TGI: > 100 µM
SK-MEL-28 melanoma
  TGI: > 100 µM
SN12C renal
  TGI: > 100 µM
SK-OV-3 ovarian
  TGI: > 100 µM
NCI-H23 lung
  TGI: > 100 µM
SW-620 colon
  TGI: > 100 µM
HT29 colon
  TGI: > 100 µM
HCC-2998 colon
  TGI: > 100 µM
HOP-62 NSCLC
  TGI: > 100 µM
SK-MEL-2 melanoma
  TGI: > 100 µM

## COCOc1ccc(C(=O)Oc2cccc3c2OC(C)(C)O3)c(OCOC)c1
SK-MEL-28 melanoma
  TGI: > 100 µM
SN12C renal
  TGI: > 100 µM
SK-OV-3 ovarian
  TGI: > 100 µM
NCI-H23 lung
  TGI: 26.3 µM
SW-620 colon
  TGI: > 100 µM
HT29 colon
  TGI: > 100 µM
HCC-2998 colon
  TGI: > 100 µM
HOP-62 NSCLC
  TGI: > 100 µM

## CCCCI(O)OS(=O)(=O)c1ccc(C)cc1
OVCAR-4 ovarian
  TGI: > 100 µM
SK-MEL-28 melanoma
  TGI: > 100 µM
SN12C renal
  TGI: > 100 µM
SK-OV-3 ovarian
  TGI: > 100 µM
NCI-H23 lung
  TGI: > 100 µM
SW-620 colon
  TGI: > 100 µM
HT29 colon
  TGI: > 100 µM
HCC-2998 colon
  TGI: > 100 µM
HOP-62 NSCLC
  TGI: > 100 µM
SK-MEL-2 melanoma
  TGI: > 100 µM

## O=c1c(F)cn2c(=O)n1CCCCCCCn1c(=O)c(F)cn(c1=O)CCCCCCC2
OVCAR-4 ovarian
  TGI: 98.4 µM
SK-MEL-28 melanoma
  TGI: 22.2 µM
SN12C renal
  TGI: > 100 µM
SK-OV-3 ovarian
  TGI: > 100 µM
NCI-H23 lung
  TGI: > 100 µM
SW-620 colon
  TGI: > 100 µM
HT29 colon
  TGI: > 100 µM
HCC-2998 colon
  TGI: > 100 µM
HOP-62 NSCLC
  TGI: > 100 µM
SK-MEL-2 melanoma
  TGI: > 100 µM

## c1ccc(C2=NC3OC2c2ccccc23)cc1 (stereo not drawn)
OVCAR-4 ovarian
  TGI: > 10 µM
SK-MEL-28 melanoma
  TGI: > 10 µM
SN12C renal
  TGI: > 10 µM
SK-OV-3 ovarian
  TGI: > 10 µM
NCI-H23 lung
  TGI: > 10 µM
SW-620 colon
  TGI: > 10 µM
HT29 colon
  TGI: > 10 µM
HCC-2998 colon
  TGI: > 10 µM
HOP-62 NSCLC
  TGI: > 10 µM
SK-MEL-2 melanoma
  TGI: > 10 µM

## Cc1c2ccnc(C(N)=O)c2c(C)c2c1[nH]c1ccccc12
OVCAR-4 ovarian
  GI50: 7.56 µM
  TGI: 29.7 µM and 93.7 µM
SK-MEL-28 melanoma
  GI50: 5.31 µM
  TGI: 19.4 µM and 20.1 µM
SN12C renal
  GI50: 5.44 µM
  TGI: 27.9 µM and 31.6 µM
SK-OV-3 ovarian
  GI50: 14.1 µM
  TGI: 23.9 µM and 34.3 µM
NCI-H23 lung
  GI50: 3.41 µM
  TGI: 24.4 µM and 18.9 µM
SW-620 colon
  TGI: 45.6 µM and 40.8 µM
HT29 colon
  GI50: 4.12 µM
  TGI: 23.2 µM and 20.4 µM
HCC-2998 colon
  GI50: 4.67 µM
  TGI: 50 µM and 19.4 µM
HOP-62 NSCLC
  GI50: 4.03 µM
  TGI: 26.8 µM and 16.9 µM
SK-MEL-2 melanoma
  GI50: 9.86 µM
  TGI: 37.5 µM and 44.1 µM
